Data taken from patent US9622481B2, “Biofilm-removing antimicrobial compositions and uses thereof” (Kane Biotech Inc., priority 2009, dated 2017).

Assays:
Format in all cases: cell-based
[1] = system: Pseudomonas aeruginosa biofilm; test: Biofilm formation, crystal violet staining, 96-well microtiter plate (Example 5); conditions: reduction in biofilm formation, OD at 630 nm, 37° C., 24 hours
Experimental: (§1) An overnight broth culture of P. aeruginosa was grown in TSB and used as inoculum. 96-well microtiter plate containing TSB in the absence and presence of each compound separately (SMP or FU) and together (SMP+FU) were inoculated. The biofilm was grown by incubating at 37° C. for 24 hours. Growth of planktonic cells based on absorbance at 600 nm using Labsystems Multiskan Ascent microplate reader was determined. Biofilm was measured by discarding the media in the wells, rinsing the well three times with water, and staining the bound cells with crystal violet. The dye was then solubilized with 33% acetic acid, and absorbance at 630 nm was determined using a microtiter plate reader.

[2] = system: Staphylococcus epidermidis biofilm; test: Biofilm formation, crystal violet staining, 96-well microtiter plate (Example 6); conditions: reduction in biofilm formation, OD at 630 nm, 37° C., 24 hours
Experimental: as §1, with “S. epidermidis” for “P. aeruginosa”

Escherichia coli biofilm [3] = test: Biofilm formation, crystal violet staining, 96-well microtiter plate (Example 4); conditions: reduction in biofilm formation, OD at 630 nm, 37° C., 24 hours
Experimental: as §1, with “E. coli” for “P. aeruginosa”

Escherichia coli biofilm [4] = test: Biofilm formation, crystal violet staining, 96-well microtiter plate (Example 7); conditions: reduction in biofilm formation, OD at 630 nm, 37° C., 24 hours
Experimental: as §1, with “E. coli” for “P. aeruginosa”, “CHX)” for “FU)”, “(SMP+CHX)” for “(SMP+FU)”

[5] = system: Pseudomonas aeruginosa biofilm; test: Biofilm formation, crystal violet staining, 96-well microplate (Example 8); conditions: reduction in biofilm formation, OD at 630 nm, 24 hours
Experimental: An overnight broth culture of bacteria and yeast were grown in TSB and used as inoculum. 96-well microplates containing TSB (for gram-positive species and yeast) and colony forming unit antigen medium (for gram-negative bacteria) in the absence and the presence of each compound separately (SMP or CHX) and together (SMP+CHX) were inoculated. The biofilm was grown by incubating at 37° C. (for gram-positive bacteria and yeast) and 26° C. (for gram-negative bacteria) for 24 hours. Growth of planktonic cells based on absorbance at 600 nm using Labsystems Multiskan Ascent microplate reader was determined. Biofilm was measured by discarding the media in the wells, rinsing the well three times with water, and staining the bound cells with crystal violet. The dye was then solubilized with 33% acetic acid, and absorbance at 630 nm was determined using a microtiter plate reader.

[6] = system: Staphylococcus epidermidis biofilm; test: Biofilm formation, crystal violet staining, 96-well microtiter plate (Example 9); conditions: reduction in biofilm formation, OD at 630 nm, 37° C., 24 hours
Experimental: as §1, with “S. epidermidis” for “P. aeruginosa”, “CHX)” for “FU)”, “(SMP+CHX)” for “(SMP+FU)”

Escherichia coli biofilm [7] = test: Biofilm formation, crystal violet staining, 96-well microplate (Example 1); conditions: reduction in biofilm formation, OD at 630 nm, 26° C., 24 hours
Experimental: (§2) An overnight broth culture of E. coli was grown in TSB and used as inoculum. 96-well microplates containing colony forming antigen medium (for […] species) in the absence and the presence of each compound (PS or BZK) separately and together (PS and BZK) were inoculated and incubated at 26° C. for 24 hours. Growth of planktonic cells based on absorbance at 600 nm using Labsystems Multiskan Ascent microplate reader was determined. Biofilm was measured by discarding the media in the wells, rinsing the well three times with water, and staining the bound cells with crystal violet. The dye was then solubilized with 33% acetic acid, and absorbance at 630 nm was determined using a microtiter plate reader.

[8] = system: Staphylococcus epidermidis biofilm; test: Biofilm formation, crystal violet staining, 96-well microplate (Example 3); conditions: reduction in biofilm formation, OD at 630 nm, 37° C., 24 hours
Experimental: as §2, with “S. epidermidis” for “E. coli”, “TSB,” for “TSB”, “TSB” for “colony forming antigen medium”, “37°” for “26°”

[9] = system: Pseudomonas aeruginosa biofilm; test: Biofilm formation, crystal violet staining, 96-well microplate (Example 2); conditions: reduction in biofilm formation, OD at 630 nm, 26°, 24 hours
Experimental: as §2, with “P. aeruginosa” for “E. coli”, “26°” for “26° C.”

Escherichia coli = test: Minimum inhibitory concentration (MIC) in 96-well microtiter plates; conditions: agent alone, TSB, 37° C., 24 hours
Experimental: (§3) Bacterial strains were grown overnight at 37° C. with 100 rpm shaking in Tryptic Soy Broth (TSB) and diluted to approximately 10^5 CFU/ml. Assays were conducted by methods of minimum inhibitory concentration (MIC) in 96-well microtiter plates as described previously (Amsterdam, D. 1996, In: V. Loman, Ed., “Antibiotics in laboratory medicine”, p. 52-111, Williams and Wilkins, Baltimore, M.D.). Antimicrobials PS and SNP both alone and together were serially diluted in TSB (100 μl), and 100 μl of bacterial suspension was added to each well. Plates were incubated at 37° C. for 24 hours and read at 600 nm using a microtiter plate reader (Multiskan Ascent, Labsystems, Helsinki, Finland).

S. aureus = test: as above; conditions: agent alone, TSB, 37° C., 24 hours
Experimental: as §3

O=c1[nH]cc(F)c(=O)[nH]1 [FU, 5-fluorouracil]
Biofilm Inhibition by FU ([1]; FU 3.75 μg/ml alone): 0.00 OD | Biofilm Inhibition by FU ([2]; FU 20 μg/ml alone): 1.43 OD | Biofilm Inhibition by FU (Escherichia coli biofilm [3]; FU 6.25 μg/ml alone): 0.17 OD

[Na+].[O-][I+3]([O-])([O-])[O-] [SMP, sodium metaperiodate]
Biofilm Inhibition by SMP (Escherichia coli biofilm [4]; SMP 250 μg/ml alone): 0.12 OD | Biofilm Inhibition by SMP ([5]; SMP 125 μg/ml alone): 0.17 OD | Biofilm Inhibition by SMP ([6]; SMP 250 μg/ml alone): 0.00 OD | Biofilm Inhibition by SMP ([1]; SMP 250 μg/ml alone): 0.16 OD | Biofilm Inhibition by SMP ([2]; SMP 250 μg/ml alone): 0.00 OD | Biofilm Inhibition by SMP (Escherichia coli biofilm [3]; SMP 250 μg/ml alone): 0.3 OD

[H]/N=C(\N/C(=N/[H])NCCCCCCNC(=N)NC(=N)Nc1ccc(Cl)cc1)Nc1ccc(Cl)cc1 [CHX, chlorhexidine]
Biofilm Inhibition by CHX (Escherichia coli biofilm [4]; CHX 1 μg/ml alone): 0.04 OD | Biofilm Inhibition by CHX ([5]; CHX 6 μg/ml alone): 0.66 OD | Biofilm Inhibition by CHX ([6]; CHX 0.5 μg/ml alone): 0.00 OD

protamine sulfate [PS]
Biofilm Inhibition by PS (Escherichia coli biofilm [7]; PS 12 μg/ml alone): 0.04 OD | Biofilm Inhibition by PS ([8]; PS 1.5 μg/ml alone): 0.34 OD | Biofilm Inhibition by PS ([9]; PS 25 μg/ml alone): 0.00 OD | MIC (Escherichia coli): >200 µg/mL | MIC (S. aureus): >200 µg/mL

benzalkonium chloride [BZK]
Biofilm Inhibition by BZK (Escherichia coli biofilm [7]; BZK 6 μg/ml alone): 0.14 OD | Biofilm Inhibition by BZK ([8]; BZK 0.8 μg/ml alone): 1.21 OD | Biofilm Inhibition by BZK ([9]; BZK 12.5 μg/ml alone): 0.00 OD
